From article PMC7249047, “Search for ABCB1 Modulators Among 2-Amine-5-Arylideneimidazolones as a New Perspective to Overcome Cancer Multidrug Resistance” (Molecules, 2020)
“And” between values parts separate entries of the source, which are not always exact repeats. Equal entries are not always repeated.

Legend:
[1] = Safety in vitro, MTS assay in HEK-293 cells; type: cell-based, human; conditions: human, HEK-293 cells, 50 µM, read-out: HEK-293 cell viability
Method: (§1) For safety assay, cells were seeded in 96-well plates at a concentration of 1 × 10^4 cells/well and incubated for 24 h at 37 °C in 5% CO2 atmosphere to reach 50% of confluence. Compounds 11, 12, and 18 were diluted into fresh growth medium and added to the cells at the final concentrations of 0.1–100 μM. The positive control DOX (1 μM) was also added and the cells were incubated for 72 h. The MTS (3-(4,5-dimethylthiazol-2-yl)-5-(3-carboxymethoxyphenyl)-2-(4-sulfophenyl)-2H-tetrazolium) reagent (CellTiter 96® AQueous One Solution Cell Proliferation Assay, Promega, Madison, WI, USA) was added next to each well and incubated for 4 h. The absorbance was measured using a microplate reader (EnSpire, PerkinElmer, Waltham, MA USA) at 490 nm to determine the cells’ viability. The statistical significances were calculated using GraphPad Prism 8.0.1 software.

[2] = test system: HEK-293 cells; test: Safety in vitro, MTS assay in HEK-293 cells; type: cell-based, human; conditions: highest used concentrations (50 and 100 µM), 72 h
Method: as §1

[3] = Cytotoxicity MTT assay, 24 h, MDR cells; type: cell-based; conditions: mouse; for IC50 at 24 h: MDR cells, MTT, read-out: Cytotoxic effect IC50; for selectivity ratio at 24 h: cytotoxic action on MDR with respect to PAR cells, read-out: SI (selectivity index), cytotoxicity
Method: (§2) The cytotoxicity of compounds 7–20 was examined in both aforementioned PAR and MDR mouse T-lymphoma cell lines, using the MTT assay to estimate IC50 values. The selectivity index for cytotoxic action on MDR with respect to PAR cells was calculated (SI, Table 3). […] This range of SI may indicate ABCB1-efflux pump substrate properties for the whole series (7–20), especially distinct in the case of 19 (SI ≤ 0.29), and slightly weaker for 8, 12, 16, and 18.
(§3) L5178 mouse T-cell lymphoma cells (PAR) (ECACC Cat. No. 87111908, obtained from FDA, Silver Spring, MD, USA) were transfected with pHa MDR1/A retrovirus, as previously described by Cornwell et al.. The ABCB1-expressing cell line L5178Y (MDR) was selected by culturing the infected cells with colchicine. The parental L5178 mouse T-cell lymphoma cells and the L5178Y human ABCB1-transfected subline were cultured in McCoy’s 5A medium (Sigma-Aldrich, St Louis, MO, USA) supplemented with 10% heat-inactivated horse serum (Sigma-Aldrich, St Louis, MO, USA), 200 mM L-glutamine (Sigma-Aldrich, St Louis, MO, USA), and a penicillin-streptomycin (Sigma-Aldrich, St Louis, MO, USA) mixture in concentrations of 100 U/L and 10 mg/L, respectively. The cell lines were incubated at 37 °C, in a 5% CO2, 95% air atmosphere.
(§4) Cytotoxicity and antiproliferative assays were performed following the procedure described in the literature. Parental and multidrug-resistant mouse T-lymphoma cells were used to determine the effect of the arylideneimidazolones on the growth of cells. The effects of increasing concentrations of arylideneimidazolones on cell growth were tested in 96-well flat-bottomed microtiter plates. The compounds were diluted in a volume of 100 μL of medium.
(§5) In the case of the mouse T-lymphoma cells, the two-fold serial dilutions were prepared in 100 μL of McCoy’s 5A, horizontally. The parental (PAR) and multidrug-resistant (MDR) mouse T-lymphoma cells were adjusted to a density of 1 × 10^4 cells (for cytotoxic assay) and 6 × 10^3 (for antiproliferative assay) in 100 μL of McCoy’s 5A medium and were added to each well, with the exception of the medium control wells.
(§6) The culture plates were incubated at 37 °C for 24 h (for cytotoxicity assay) and 72 h (for antiproliferative assay); at the end of the incubation period, 20 μL of MTT (thiazolyl blue tetrazolium bromide, Sigma) solution (from a stock solution of 5 mg/mL) were added to each well. After incubation at 37 °C for 4 h, 100 μL of sodium dodecyl sulfate (SDS) (Sigma) solution (10% in 0.01 M HCI) were added to each well and the plates were further incubated at 37 °C overnight. Cell growth was determined by measuring the optical density (OD) at 540/630 nm with a Multiscan EX ELISA reader (Thermo Labsystems, Cheshire, WA, USA).
(§7) Results have been expressed in terms of IC50, defined as the inhibitory dose that reduces the growth of the cells exposed to the tested compounds by 50%, each representing the mean of a minimum of three independent experiments.

[4] = target: T1, Pgp (ABCB1) ATPase (Homo sapiens, UniProt P08183); test: Luminescent Pgp-Glo Assay (Pgp ATPase intrinsic activity); type: biochemical; conditions: 100 µM, 40 min, 37 °C; substrates stimulate basal activity (>100%)
T1 construct: purchased Promega (Madison, WI, USA)
Method: Compounds 11, 12, and 18 were tested at 100 µM on their influence on the ATPase activity of the Pgp pump in the luminescence Pgp-Glo™ Assay, according to previously described methods and protocols. In this assay, luminescence was measured. The Pgp-dependent decreases in luminescence reflect the ATP consumption by Pgp. […] Thus, inhibitors give results <100% of the basal activity, while stimulators/substrates cause a statistically significant increase in the basal activity. […].
The luminescent Pgp-Glo™ Assay System used for determination of the arylideneimidazolone influence on P-glycoprotein activity was purchased from Promega (Madison, WI, USA). The assay was performed in triplicate as described previously. […]. For basal P-gp activity calculation, the membranes were incubated with 100 µM of Na3VO4. The luminescence signal was measured by a microplate reader EnSpire PerkinElmer (Waltham, MA, USA). The statistical significances were calculated using GraphPad Prism 8.0.1 software.

[5] = target: ABCB1 efflux pump (Homo sapiens, UniProt P08183); test: Rhodamine 123 accumulation assay (flow cytometry); conditions: for efflux pump inhibiting effect relative to verapamil: 20 µM, same concentration as verapamil; for FAR Quotient (%): FAR of compound related to FAR of VER tested at 20 µM; for FAR (fluorescence activity ratio): rhodamine 123 accumulation, MDR vs PAR mouse T-lymphoma cells
Method: The study was carried out on mouse T-lymphoma cell lines, including the parental sensitive line (PAR) and its multidrug-resistant subline (MDR) transfected with the human MDR1 (ABCB1) gene. […] The fluorescence activity ratio (FAR), as a measure of the efflux pump modulating properties, was calculated based on the fluorescence data obtained [23, 24, 25]. […] The parental L5178 mouse T-cell lymphoma cells and the L5178Y human ABCB1-transfected subline were cultured in McCoy’s 5A medium (Sigma-Aldrich, St Louis, MO, USA) supplemented with 10% heat-inactivated horse serum (Sigma-Aldrich, St Louis, MO, USA), 200 mM L-glutamine (Sigma-Aldrich, St Louis, MO, USA), and a penicillin-streptomycin (Sigma-Aldrich, St Louis, MO, USA) mixture in concentrations of 100 U/L and 10 mg/L, respectively.
The potency of the tested compounds as inhibitors of the ABCB1 efflux pump was determined using a fluorescence-based detection system, described previously in the literature [23, 26]. […] The parental (PAR) and multidrug-resistant (MDR) mouse T-lymphoma cells were adjusted to a density of 2 × 10^6/mL, re-suspended in serum-free McCoy’s 5A medium, and distributed in 0.5 mL aliquots into Eppendorf centrifuge tubes. […] The fluorescence intensity of the cell population was measured with a Partec CyFlow flow cytometer (Partec, Munster, Germany). […] The mean fluorescence intensity (%) was calculated for the treated MDR and PAR mouse T-lymphoma cells as compared to the untreated cells.

[6] = test system: multidrug-resistant (MDR) mouse T-lymphoma cells; test: Antiproliferative MTT assay, 72 h, MDR cells; type: cell-based; conditions: for SI (selectivity index), antiproliferative: MDR with respect to PAR cells; for IC50: Mus musculus, MDR cells, 72 h, MTT, read-out: Antiproliferative effect IC50
Method: (§8) The ABCB1-expressing cell line L5178Y (MDR) was selected by culturing the infected cells with colchicine. The parental L5178 mouse T-cell lymphoma cells and the L5178Y human ABCB1-transfected subline were cultured in McCoy’s 5A medium (Sigma-Aldrich, St Louis, MO, USA) supplemented with 10% heat-inactivated horse serum (Sigma-Aldrich, St Louis, MO, USA), 200 mM L-glutamine (Sigma-Aldrich, St Louis, MO, USA), and a penicillin-streptomycin (Sigma-Aldrich, St Louis, MO, USA) mixture in concentrations of 100 U/L and 10 mg/L, respectively.
as §4, §5
(§9) Cell growth was determined by measuring the optical density (OD) at 540/630 nm with a Multiscan EX ELISA reader (Thermo Labsystems, Cheshire, WA, USA).

[7] = Cytotoxicity MTT assay, 24 h, PAR cells; type: cell-based; conditions: mouse, parental (PAR) L5178 mouse T-cell lymphoma cells, read-out: Cytotoxic effect IC50
Method: as §2, §3, §4, §5, §6, §7

[8] = test system: parental (PAR) mouse T-lymphoma cells; test: Antiproliferative MTT assay, 72 h, PAR cells; type: cell-based; conditions: read-out: Antiproliferative effect IC50
Method: as §8, §4, §5, §9

[9] = concentration 20 µM, VER values for assay group 1 / 2

ABCB1 efflux pump, sequence (P08183 whole entry): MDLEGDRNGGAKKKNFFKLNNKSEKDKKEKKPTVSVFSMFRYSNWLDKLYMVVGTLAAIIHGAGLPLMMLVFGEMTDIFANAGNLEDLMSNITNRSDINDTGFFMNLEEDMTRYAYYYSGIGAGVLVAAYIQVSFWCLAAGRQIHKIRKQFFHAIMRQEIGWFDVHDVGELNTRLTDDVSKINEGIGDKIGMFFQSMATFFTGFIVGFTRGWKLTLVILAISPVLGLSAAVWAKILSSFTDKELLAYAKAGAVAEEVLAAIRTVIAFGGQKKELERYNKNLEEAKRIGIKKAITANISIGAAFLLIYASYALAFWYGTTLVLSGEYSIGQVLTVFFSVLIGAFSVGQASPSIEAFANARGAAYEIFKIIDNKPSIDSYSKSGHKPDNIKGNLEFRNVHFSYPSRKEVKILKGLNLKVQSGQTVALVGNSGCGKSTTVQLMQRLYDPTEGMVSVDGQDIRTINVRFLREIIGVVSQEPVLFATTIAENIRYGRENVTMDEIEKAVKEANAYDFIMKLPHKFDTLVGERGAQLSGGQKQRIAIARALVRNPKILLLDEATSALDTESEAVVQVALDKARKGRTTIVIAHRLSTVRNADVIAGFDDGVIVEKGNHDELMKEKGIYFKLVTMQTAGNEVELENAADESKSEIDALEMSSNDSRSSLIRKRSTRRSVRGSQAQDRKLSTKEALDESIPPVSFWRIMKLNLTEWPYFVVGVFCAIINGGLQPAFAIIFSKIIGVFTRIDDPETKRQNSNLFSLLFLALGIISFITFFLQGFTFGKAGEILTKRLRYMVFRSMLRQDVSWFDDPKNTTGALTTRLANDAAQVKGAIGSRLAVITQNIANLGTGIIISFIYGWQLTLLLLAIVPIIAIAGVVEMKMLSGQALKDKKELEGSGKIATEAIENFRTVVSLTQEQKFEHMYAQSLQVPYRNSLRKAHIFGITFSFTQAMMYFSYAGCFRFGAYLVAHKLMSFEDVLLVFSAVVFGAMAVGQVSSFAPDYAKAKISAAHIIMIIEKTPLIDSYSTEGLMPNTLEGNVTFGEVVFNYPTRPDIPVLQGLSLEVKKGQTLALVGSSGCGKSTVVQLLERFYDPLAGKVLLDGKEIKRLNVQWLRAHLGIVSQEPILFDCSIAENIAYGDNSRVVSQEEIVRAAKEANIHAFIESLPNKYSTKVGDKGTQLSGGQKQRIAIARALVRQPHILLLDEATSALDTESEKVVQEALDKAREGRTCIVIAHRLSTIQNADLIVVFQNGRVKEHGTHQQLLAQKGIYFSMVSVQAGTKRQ
T1 sequence (P08183 whole entry): as above

| effect on ABCB1 basal activity (Pgp ATPase) [4] | efflux pump inhibiting effect relative to verapamil [5] | FAR Quotient (%) ([5]; concentration 2 µM) | FAR (fluorescence activity ratio) ([5]; concentration 2 µM) | FAR Quotient (%) ([5]; concentration 20 µM) | FAR (fluorescence activity ratio) [5, 9] | IC50 [6] [µM] | melting point [°C] | Structure (SMILES) | viability at 72 h, 50 µM [1] [%] | effect on HEK-293 cell viability [2] | IC50 at 24 h [3] [µM] | selectivity ratio at 24 h [3] | SI (selectivity index), antiproliferative [6] | IC50 at 24 h [7] [µM] | IC50 [8] [µM] |
| --- | --- | --- | --- | --- | --- | --- | --- | --- | --- | --- | --- | --- | --- | --- | --- |
| increase in basal activity | ~1.5 fold and 1.38–1.46 fold | 7.94 | 1.038 | 138.37 | 18.095 | 10.8 | 261 to 263 | Cl.NC1=N/C(=C\c2ccc3c(c2)Cc2ccccc2-3)C(=O)N1CCCN1CCOCC1 [Compound 18, (Z)-5-((9H-Fluoren-2-yl)methylene)-2-amino-3-(3-morpholinopropyl)-imidazol-4(5H)-one hydrochloride] | 10.3 | significantly decreased HEK-293 cell viability | 27.8 | 0.58 | 1.24 | 16 | 13.4 |
| increased the basal activity |  | 8.88 | 1.161 | 46.23 | 6.045 | 16.2 | 274 to 276 | Cl.O=C1N=C(N2CCC(N3CCOCC3)CC2)N/C1=C\c1ccc2c(c1)Cc1ccccc1-2 [Compound 12, (Z)-5-((9H-Fluoren-2-yl)methylene)-2-(4-morpholinopiperidin-1-yl)-imidazol-4(5H)-one hydrochloride] |  |  | 30.8 | 0.51 | 0.78 | 15.8 | 12.7 |
| increase in basal activity | ~1.5 fold and 1.38–1.46 fold | 7.51 | 1.203 | 146.22 | 23.419 | 25.6 |  | Cl.O=C1N=C(N2CCC(N3CCOCC3)CC2)N/C1=C\c1ccc(Oc2ccccc2)cc1 [Compound 11, (Z)-5-(4-Phenoxybenzylidene)-2-(4-morpholinopiperidin-1-yl)-imidazol-4(5H)-one hydrochloride] | 84.2 | significantly decreased HEK-293 cell viability | 45.5 | 0.86 | 0.97 | 39.1 | 24.8 |
